This note sets out measurements from ChEMBL document CHEMBL1124466, “Synthesis of 5-[1-hydroxy(or methoxy)-2-bromo(or chloro)ethyl]-2'-deoxyuridines and related halohydrin analogues with antiviral and cytotoxic activity” (1989).

Assay type in all cases: functional
The subject of test [1] is L1210. In words: In vitro cytotoxicity against L1210 cells at a dose 50 ug/mL. The conditions noted are these: Mus musculus, read-out: Survival.
Test [2] concerns L1210. In words: In vitro cytotoxicity against L1210 cells at a dose 10 ug/mL. As to conditions: Mus musculus, read-out: Survival.
A further test concerns Vero. As to the kind of experiment: In vitro antiviral activity against herpes simplex virus type-1 in vero cells. As to conditions: Chlorocebus sabaeus, read-out: ID50 (the source's name).
Test [3] concerns L1210. As to the kind of experiment: Effective dose against L1210 cells. As to conditions: Mus musculus, read-out: ED50 (the source's name).

In brackets after ≈: the same amount, converted by molar mass.

Turning to `O=c1[nH]c(=O)n([C@H]2C[C@H](O)[C@@H](CO)O2)cc1C(Br)C(O)I.O=c1[nH]c(=O)n([C@H]2C[C@H](O)[C@@H](CO)O2)cc1C(O)C(Br)I` (stereo partly specified), the viability at 50 µg/mL in the test on L1210 [1] is 40.1%. The viability at 10 µg/mL with L1210 [2] came out at 79.2%. For the same molecule, the IC50 in the test with Vero was greater than 10 µg/mL.

For the molecule `COC(CCl)c1cn([C@H]2C[C@H](O)[C@@H](CO)O2)c(=O)[nH]c1=O` (stereo partly specified), the viability at 50 µg/mL with L1210 [1] came out at 38.8%. Besides, in the test on L1210 [2], the viability at 10 µg/mL was 75%. For the same molecule, the IC50 with Vero was greater than 10 µg/mL.

With `COC(CBr)c1cn([C@H]2C[C@H](O)[C@@H](CO)O2)c(=O)[nH]c1=O` (stereo partly specified), the viability at 50 µg/mL with L1210 [1] is 11.7%. Also, in the test on L1210 [2], the viability at 10 µg/mL worked out at 80.8%. For the same molecule, in the test on Vero, the IC50 was determined as 0.1 µg/mL (≈ 0.274 µM).

`O=c1[nH]c(=O)n([C@H]2C[C@H](O)[C@@H](CO)O2)cc1C(O)CCl` (stereo partly specified): the viability at 50 µg/mL in the test on L1210 [1] worked out at 24.3%. The viability at 10 µg/mL in the test with L1210 [2] worked out at 74%. Also, the IC50 with Vero was found to be 0.1 µg/mL (≈ 0.326 µM).

On to `O=c1[nH]c(=O)n([C@H]2C[C@H](O)[C@@H](CO)O2)cc1C(O)CBr` (stereo partly specified), for which, in the test on L1210 [1], the viability at 50 µg/mL stood at 23.7%. In the test on L1210 [2], the viability at 10 µg/mL was found to be 65.5%. For the same molecule, the IC50 in the test with Vero was greater than 10 µg/mL.

For `CCOC(=O)C(Br)C(O)c1cn([C@H]2C[C@H](O)[C@@H](CO)O2)c(=O)[nH]c1=O` (stereo partly specified), in the test on L1210 [1], the viability at 50 µg/mL was found to be 4.9%. Besides, the viability at 10 µg/mL in the test with L1210 [2] was 49.7%. Further, the EC50 in the test on L1210 [3] came to 11 µg/mL (≈ 26 µM). In the test on Vero, the IC50 turned out to be 1 µg/mL (≈ 2.36 µM).

Consider `CCOC(=O)C(I)C(O)c1cn([C@H]2C[C@H](O)[C@@H](CO)O2)c(=O)[nH]c1=O` (stereo partly specified), for which the viability at 50 µg/mL in the test on L1210 [1] came to 10.4%. The viability at 10 µg/mL in the test on L1210 [2] amounted to 73.2%. The IC50 with Vero is 0.1 µg/mL (≈ 0.213 µM).

In the case of `Nc1nc2c(ncn2COCCO)c(=O)[nH]1` [ACYCLOVIR], in the test with Vero, the IC50 is 0.01 µg/mL (≈ 0.0444 µM).

`N[C@@H](Cc1ccc(N(CCCl)CCCl)cc1)C(=O)O` [MELPHALAN]: the viability at 50 µg/mL in the test on L1210 [1] is 0%. In addition, the viability at 10 µg/mL in the test with L1210 [2] is 2.8%. In addition, in the test with L1210 [3], the EC50 is 0.15 µg/mL (≈ 0.491 µM).
